56 molecules from patent US20200237766A1, “PKM2 ACTIVATORS IN COMBINATION WITH REACTIVE OXYGEN SPECIES FOR TREATMENT OF CANCER” (TOLERO PHARMACEUTICALS, INC., priority 2017, published 2020) can be followed below.

The structures appear in SMILES notation. Where two headings read alike, the source gives them in different places.

The assay deals with PKM2 (Homo sapiens, UniProt P14618). Put plainly: PKM2 activation biochemical assay (AC50 / max. response vs fructose 1,6-bisphosphate). The note with it: for Max. Resp. (%): % maximum response in a biochemical assay as compared with Fructose 1,6-bisphosphate.
Chain of PKM2 (P14618 whole entry): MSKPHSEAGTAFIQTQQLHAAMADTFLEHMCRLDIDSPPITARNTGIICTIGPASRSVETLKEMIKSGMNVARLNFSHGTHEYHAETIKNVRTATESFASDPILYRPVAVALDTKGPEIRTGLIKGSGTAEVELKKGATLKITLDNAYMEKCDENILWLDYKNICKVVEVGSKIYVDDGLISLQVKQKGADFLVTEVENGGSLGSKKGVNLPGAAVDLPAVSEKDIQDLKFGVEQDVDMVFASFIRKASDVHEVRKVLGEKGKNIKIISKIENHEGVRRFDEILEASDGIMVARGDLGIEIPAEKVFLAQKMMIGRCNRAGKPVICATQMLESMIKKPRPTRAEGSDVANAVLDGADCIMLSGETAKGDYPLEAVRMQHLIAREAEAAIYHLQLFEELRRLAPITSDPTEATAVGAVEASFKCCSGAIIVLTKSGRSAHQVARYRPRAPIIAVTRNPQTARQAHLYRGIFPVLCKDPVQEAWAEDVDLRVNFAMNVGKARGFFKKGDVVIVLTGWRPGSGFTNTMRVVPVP
The mark [1] stands for this setting: biochemical assay, read-out: PKM2 AC50.

In general, AC50 refers to the midpoint of the concentration-response curve, whichever way the signal moves. As for `O=C(c1cc(C(F)(F)F)n[nH]1)N(CCC1CCS(=O)(=O)C1)Cc1ccccc1F` (stereo not drawn) [Compound 63], the “Max. Resp. (%)” value is recorded as 87%. Moreover, under setting [1], the AC50 worked out at 240 nM.

As to `O=C(c1cc(C(F)(F)F)n[nH]1)N(CCC1CCS(=O)(=O)C1)Cc1c(Cl)cccc1Cl` (stereo not drawn) [Compound 64], the “Max. Resp. (%)” value turned out to be 71%. For the same molecule, the AC50 under setting [1] is 3780 nM.

Turning to `O=C(c1cc(C(F)(F)F)n[nH]1)N(CCC1CCS(=O)(=O)C1)Cc1c(F)cccc1F` (stereo not drawn) [Compound 66], the AC50 was found to be 375 nM and the “Max. Resp. (%)” value is recorded as 102%.

As for `O=C(c1cc(C(F)(F)F)n[nH]1)N(CCC1CCS(=O)(=O)C1)Cc1cccc(F)c1` (stereo not drawn) [Compound 67], the AC50 was 1630 nM and the “Max. Resp. (%)” value stood at 95%.

Take `O=C(c1cc(C(F)(F)F)n[nH]1)N(CCC1CCS(=O)(=O)C1)Cc1cccc(F)c1F` (stereo not drawn) [Compound 68]: the “Max. Resp. (%)” value came to 103%. In addition, the AC50 under setting [1] came out at 766 nM.

Regarding `O=C(c1cc(C(F)(F)F)n[nH]1)N(CCC1CCS(=O)(=O)C1)Cc1cc(F)cc(F)c1` (stereo not drawn) [Compound 69], the “Max. Resp. (%)” value was 74%. Further, the AC50 under setting [1] amounted to 1830 nM.

Take `O=C(c1cc(C(F)(F)F)n[nH]1)N(CCC1CCS(=O)(=O)C1)Cc1cc(F)ccc1F` (stereo not drawn) [Compound 70]: the “Max. Resp. (%)” value is on record as 91%. Under setting [1], the AC50 turned out to be 884 nM.

Turning to `O=C(c1cc(C(F)(F)F)n[nH]1)N(Cc1ccccc1F)CC1CCS(=O)(=O)CC1` [Compound 71], the “Max. Resp. (%)” value came to 71%. The AC50 under setting [1] was 10200 nM.

`O=C(c1cc(C(F)(F)F)n[nH]1)N(Cc1ccccc1Cl)CC1CCS(=O)(=O)CC1` [Compound 72]: the “Max. Resp. (%)” value is on record as 22%. Also, the AC50 under setting [1] was 19700 nM.

Regarding `O=C(c1cc(C(F)(F)F)n[nH]1)N(CCC1CCSCC1)Cc1ccccc1Cl` [Compound 73], the “Max. Resp. (%)” value came out at 79%. Besides, the AC50 under setting [1] is 1340 nM.

As for `O=C(c1cc(C(F)(F)F)n[nH]1)N(CCC1CC[S+]([O-])CC1)Cc1ccccc1Cl` (stereo not drawn) [Compound 74], the “Max. Resp. (%)” value is reported as 95%. Further, the concentration at half-maximal activity (AC50) under setting [1] is 640 nM.

For `O=C(c1cc(C(F)(F)F)n[nH]1)N(CCC1CCS(=O)(=O)CC1)Cc1ccccc1Cl` [Compound 75], the “Max. Resp. (%)” value was 102%. Besides, under setting [1], the AC50 is 188 nM.

Consider `O=C(c1cc(C(F)(F)F)n[nH]1)N(CCC1CCS(=O)(=O)C1)Cc1ccc(O)cc1F` (stereo not drawn) [Compound 76], for which the “Max. Resp. (%)” value amounted to 93%. The AC50 under setting [1] was 54 nM.

Take `Nc1ccccc1CN(CCC1CCS(=O)(=O)C1)C(=O)c1cc(C(F)(F)F)n[nH]1` (stereo not drawn) [Compound 77]: the AC50 was found to be 34800 nM and the “Max. Resp. (%)” value was 43%.

`O=C(c1cc(C(F)(F)F)n[nH]1)N(CCC1CCS(=O)(=O)CC1)Cc1ccccc1Cl` [Compound 78]: the AC50 under setting [1] stood at 485 nM.

As for `O=C(c1cc(C(F)(F)F)n[nH]1)N(CCC1CCSCC1)Cc1ccccc1F` [Compound 79], the “Max. Resp. (%)” value worked out at 95%. In addition, under setting [1], the AC50 was 1190 nM.

Take `O=C(c1cc(Cl)n[nH]1)N(CCC1CCSCC1)Cc1ccccc1F` [Compound 80]: the AC50 was 1300 nM and the “Max. Resp. (%)” value came out at 46%.

For the molecule `O=C(c1cc(Cl)n[nH]1)N(CCC1CCS(=O)(=O)CC1)Cc1ccccc1F` [Compound 81], the activity was half-maximal at 1370 nM (AC50) and the “Max. Resp. (%)” value came to 72%.

Turning to `O=C(c1cc(Br)n[nH]1)N(CCC1CCSCC1)Cc1ccccc1F` [Compound 82], the “Max. Resp. (%)” value stood at 74%. Besides, the AC50 under setting [1] was 1370 nM.

For the molecule `O=C(c1cc(Br)n[nH]1)N(CCC1CCS(=O)(=O)CC1)Cc1ccccc1F` [Compound 83], the “Max. Resp. (%)” value is recorded as 98%. The AC50 under setting [1] turned out to be 1100 nM.

`O=C(c1cc(C(F)(F)F)n[nH]1)N(CCC1CCSCC1)Cc1c(F)cccc1F` [Compound 84]: the “Max. Resp. (%)” value came out at 73%. Besides, the AC50 under setting [1] was 697 nM.

Regarding `O=C(c1cc(C(F)(F)F)n[nH]1)N(CCC1CCS(=O)(=O)CC1)Cc1c(F)cccc1F` [Compound 85], the “Max. Resp. (%)” value came out at 100%. Further, the AC50 under setting [1] was 64 nM.

As for `O=C(c1cc(C(F)(F)F)n[nH]1)N(CCC1CCSCC1)Cc1ccc(O)cc1F` [Compound 86], the “Max. Resp. (%)” value is recorded as 98%. Also, under setting [1], the AC50 is 93 nM.

Turning to `O=C(c1cc(C(F)(F)F)n[nH]1)N(CCC1CCS(=O)(=O)CC1)Cc1ccc(O)cc1F` [Compound 87], the “Max. Resp. (%)” value is recorded as 100%. Further, the AC50 under setting [1] came to 64 nM.

On to `O=C(c1cc(C(F)(F)F)n[nH]1)N(CCC1CCS(=O)(=O)C1)Cc1ccccn1` (stereo not drawn) [Compound 88], for which the “Max. Resp. (%)” value turned out to be 96%. The AC50 under setting [1] was found to be 3600 nM.

On to `O=C(c1cc(C(F)(F)F)n[nH]1)N(CCC1CCS(=O)(=O)C1)Cc1ccncc1` (stereo not drawn) [Compound 89], for which the “Max. Resp. (%)” value is given as 35%. Moreover, the AC50 under setting [1] was 58000 nM.

Turning to `O=C(c1cc(C(F)(F)F)n[nH]1)N(CCC1CCS(=O)(=O)C1)Cc1cccnc1` (stereo not drawn) [Compound 90], the “Max. Resp. (%)” value was 24%. Moreover, the AC50 under setting [1] was determined as 52000 nM.

Take `O=C(c1cc(C(F)(F)F)n[nH]1)N(CCC1CCS(=O)(=O)C1)Cc1ncccc1Cl` (stereo not drawn) [Compound 92]: the “Max. Resp. (%)” value worked out at 74%. For the same molecule, under setting [1], the AC50 is 1290 nM.

Turning to `O=C(c1cc(C(F)(F)F)n[nH]1)N(CCC1CCS(=O)(=O)C1)Cc1cncs1` (stereo not drawn) [Compound 93], the AC50 amounted to 49000 nM and the “Max. Resp. (%)” value turned out to be 26%.

In the case of `O=C(c1cc(C(F)(F)F)n[nH]1)N(CCC1CCS(=O)(=O)C1)Cc1cccc([N+](=O)[O-])c1Cl` (stereo not drawn) [Compound 94], the “Max. Resp. (%)” value worked out at 69%. For the same molecule, the AC50 under setting [1] was determined as 2380 nM.

`O=C(c1cc(C(F)(F)F)n[nH]1)N(CCC1CCNCC1)Cc1ccccc1F` [Compound 98]: the AC50 is 2050 nM and the “Max. Resp. (%)” value came to 56%.

`CS(=O)(=O)N1CCC(CCN(Cc2ccccc2F)C(=O)c2cc(C(F)(F)F)n[nH]2)CC1` [Compound 99]: the “Max. Resp. (%)” value is listed as 100%. Moreover, the AC50 under setting [1] was determined as 110 nM.

As for `CN1CCC(CN(Cc2ccccc2F)C(=O)c2cc(C(F)(F)F)n[nH]2)CC1` [Compound 100], the “Max. Resp. (%)” value worked out at 29%. Moreover, under setting [1], the half-maximal activity concentration (AC50) was 101000 nM.

`CCN1CCC(CCN(Cc2ccccc2Cl)C(=O)c2cc(C(F)(F)F)n[nH]2)CC1` [Compound 101]: the “Max. Resp. (%)” value turned out to be 96%. Also, under setting [1], the AC50 turned out to be 1860 nM.

On to `CN1CCC(CCN(Cc2ccccc2Cl)C(=O)c2cc(C(F)(F)F)n[nH]2)CC1` [Compound 102], for which the “Max. Resp. (%)” value is reported as 71%. Also, the AC50 under setting [1] was 767 nM.

Regarding `CN1CCN(CCN(Cc2ccccc2F)C(=O)c2cc(C(F)(F)F)n[nH]2)CC1` [Compound 103], the concentration at half-maximal activity (AC50) is 37000 nM and the “Max. Resp. (%)” value is 42%.

As to `CN1CCN(CCN(Cc2ccccc2Cl)C(=O)c2cc(C(F)(F)F)n[nH]2)CC1` [Compound 104], the “Max. Resp. (%)” value was found to be 63%. The AC50 under setting [1] amounted to 17000 nM.

As for `CCN1CCC(CCN(Cc2c(Cl)cccc2Cl)C(=O)c2cc(C(F)(F)F)n[nH]2)CC1` [Compound 105], the “Max. Resp. (%)” value was 71%. Also, under setting [1], the AC50 is 3270 nM.

Regarding `CCN1CCN(CCN(Cc2ccccc2F)C(=O)c2cc(C(F)(F)F)n[nH]2)CC1` [Compound 106], the “Max. Resp. (%)” value is 115%. Further, the AC50 under setting [1] turned out to be 6300 nM.

On to `O=C(c1cc(C(F)(F)F)n[nH]1)N(CCN1CCS(=O)(=O)CC1)Cc1ccccc1Cl` [Compound 107], for which the “Max. Resp. (%)” value was 85%. The AC50 under setting [1] came out at 873 nM.

In the case of `O=C(c1cc(C(F)(F)F)n[nH]1)N(CCN1CCS(=O)(=O)CC1)Cc1ccccc1F` [Compound 108], the AC50 came out at 7800 nM and the “Max. Resp. (%)” value is 92%.

With `O=C(c1cc(C(F)(F)F)n[nH]1)N(CCN1CCS(=O)(=O)CC1)Cc1c(F)cccc1F` [Compound 109], the “Max. Resp. (%)” value is given as 94%. In addition, the AC50 under setting [1] amounted to 4200 nM.

With `O=C(c1cc(C(F)(F)F)n[nH]1)N(CCN1CCS(=O)(=O)CC1)Cc1c(Cl)cccc1Cl` [Compound 110], the “Max. Resp. (%)” value was 84%. Also, the AC50 under setting [1] amounted to 1640 nM.

Turning to `O=C(c1cc(C(F)(F)F)n[nH]1)N(CCN1CCS(=O)(=O)CC1)Cc1cccc(F)c1F` [Compound 111], the “Max. Resp. (%)” value came to 64%. Besides, the AC50 under setting [1] was 13100 nM.

For `Nc1cccc(CN(CCN2CCS(=O)(=O)CC2)C(=O)c2cc(C(F)(F)F)n[nH]2)c1` [Compound 112], the “Max. Resp. (%)” value is 91%. The AC50 under setting [1] amounted to 1070 nM.

For `CC[C@](C)(N)C(=O)Oc1ccc(CN(CC2CCC2)C(=O)c2cc(Cl)n[nH]2)c(F)c1` [Compound 115], the “Max. Resp. (%)” value is listed as 104%. For the same molecule, the AC50 under setting [1] came to 98 nM.

As for `O=C(c1cc(Cl)n[nH]1)N(Cc1ccncc1F)CC1CCC1` [Compound 116], under setting [1], the AC50 turned out to be 38000 nM.

Take `CN(C)Cc1c[nH]c2cccc(CN(CC3CCC3)C(=O)c3cc(Cl)n[nH]3)c12` [Compound 118]: the “Max. Resp. (%)” value is on record as 100%. The AC50 under setting [1] was determined as 7000 nM.

Regarding `O=C(c1cc(Cl)n[nH]1)N(Cc1cccc2[nH]cnc12)CC1CCC1` [Compound 119], the “Max. Resp. (%)” value is listed as 100%. Also, the AC50 under setting [1] came out at 2930 nM.

As for `O=C(c1cc(Br)n[nH]1)N(Cc1cccc2[nH]cnc12)CC1CCC1` [Compound 120], the “Max. Resp. (%)” value worked out at 100%.

Turning to `CNCc1c[nH]c2cccc(CN(CC3CCC3)C(=O)c3cc(Br)n[nH]3)c12` [Compound 121], half-maximal activity (AC50) was put at 23000 nM.

As to `O=C(c1cc(C(F)(F)F)n[nH]1)N(Cc1cccc2[nH]cnc12)CC1CCC1` [Compound 123], the AC50 was found to be 828 nM and the “Max. Resp. (%)” value is reported as 100%.

Consider `O=C(c1cc(C(F)(F)F)n[nH]1)N(Cc1ccc(O)cc1Cl)CC1CCC1` [Compound 124], for which the “Max. Resp. (%)” value came out at 100%. Moreover, under setting [1], the AC50 turned out to be 21 nM.

Take `O=C(c1cc(Br)n[nH]1)N(Cc1ccc(O)cc1Cl)CC1CCC1` [Compound 125]: the “Max. Resp. (%)” value came out at 100%. Further, the AC50 under setting [1] was 35 nM.

On to `O=C(c1cc(C(F)(F)F)n[nH]1)N(Cc1ccccc1Cl)CC1CCC1` [Compound 127], for which the AC50 is 258 nM and the “Max. Resp. (%)” value is on record as 100%.

Take `O=C(c1cc(C(F)(F)F)n[nH]1)N(Cc1ccncc1Cl)CC1CCC1` [Compound 128]: the “Max. Resp. (%)” value is reported as 75%. Besides, under setting [1], the AC50 stood at 9300 nM.
